Values of other authors as cited in patent publication US10779570B2, “Aerosol from tobacco” (PHILIP MORRIS PRODUCTS S.A., priority 2013, dated 2020).

Conditions: biomarker of exposure in urine

Row | Compound | Biomarker t1/2β [h]
1 | CC(=O)N[C@@H](CSC(C)CCO)C(=O)O (stereo partly drawn) [3-Hydroxy-1-methylpropyl-mercapturic acid] | 48

Same assay, conditions: biomarker of exposure in urine, plasma or blood

Row | Compound | Biomarker t1/2β [h]
2 | Nc1ccc2ccccc2c1 [2-Aminonaphthalene] | 9
3 | CC(=O)N[C@@H](CSCCC#N)C(=O)O [2-Cyanoethylmercapturic acid] | 17
4 | CC(=O)N[C@@H](CSCCO)C(=O)O [2-Hydroxyethyl-mercapturic acid] | 5
5 | CC(=O)N[C@@H](CSCCCO)C(=O)O [3-Hydroxypropyl-mercapturic acid] | 10
6 | Nc1ccc(-c2ccccc2)cc1 [4-Aminobiphenyl] | 26
7 | O=NN1CCC[C@H]1c1cccnc1 [NNN, N-nitrosonornicotine] | 15
8 | S-benzyl-mercapturic acid | 9

Conditions: smoke constituent

Row | Compound | Organ Class toxicity
9 | C=CC=C [1,3-Butadiene] | CA, RT, RDT
10 | C=CC=O [Acrolein] | RT, CT
11 | C=CC#N [Acrylonitrile] | CA, RT
12 | c1ccccc1 [Benzene] | CA, CT, RDT
13 | [C-]#[O+] [Carbon monoxide] | RDT, CT
14 | C1CO1 [Ethylene Oxide] | CA, RT, RDT
15 | Cc1ccccc1 [Toluene] | RT, RDT
